Results: PMC12630025, “Characterization and inhibitor sensitivity of ARAF, BRAF, and CRAF kinases [drawing 1]” (The Journal of Biological Chemistry, 2025)
Where two headings read alike, the source gives them in different places.

Tests used:
Format in all cases: biochemical
[1] = target: T1, ARAF^SSDD (MEK1^SASA:ARAF^SSDD-14-3-3ε dimer complex) (Homo sapiens, UniProt P10398, G300S/Y301D/Y302D); test: TR-FRET kinase inhibition assay (phosphorylation of biotinylated MEK1), ARAF dimer complex; details: for IC50: 10 nM enzyme, 250 nM MEK1, 200 μM ATP, 40 min preincubation, 30 min reaction; for ARAF^SSDD nH (Hill slope): four-parameter fit, 200 μM ATP
T1 construct: ARAF^274-606, G300S, Y301/302D-14-3-3 ε with N-terminal His6 and StrepII tags; His6 (N); StrepII (N); made in house; host or cells: SF9 insect cells (baculovirus)
T1 sequence (P10398 274-606 G300S/Y301D/Y302D): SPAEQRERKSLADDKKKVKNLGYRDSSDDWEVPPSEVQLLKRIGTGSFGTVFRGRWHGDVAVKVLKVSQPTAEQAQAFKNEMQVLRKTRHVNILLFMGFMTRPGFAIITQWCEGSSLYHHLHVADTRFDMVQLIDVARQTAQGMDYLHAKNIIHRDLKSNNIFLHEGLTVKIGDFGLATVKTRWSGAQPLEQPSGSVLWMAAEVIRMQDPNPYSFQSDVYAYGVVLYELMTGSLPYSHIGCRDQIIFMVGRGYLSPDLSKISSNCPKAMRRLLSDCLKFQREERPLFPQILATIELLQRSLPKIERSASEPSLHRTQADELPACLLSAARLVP

[2] = target: T2, BRAF^V600E (MEK1^SASA:BRAF^V600E monomer complex) (Homo sapiens, UniProt P15056, V600E); test: TR-FRET kinase inhibition assay (phosphorylation of biotinylated MEK1), BRAF V600E monomer complex; details: 1 nM enzyme, 250 nM MEK1, 200 μM ATP, 40 min preincubation; three-parameter fit
T2 construct: His6 (N); intein (C, cleaved yes); made in house; host or cells: insect cells (baculovirus)

[3] = target: T3, CRAF^SSDD (MEK1^SASA:CRAF^SSDD:14-3-3 dimer complex) (Homo sapiens, UniProt P04049, Y340D/Y341D); test: TR-FRET kinase inhibition assay (phosphorylation of biotinylated MEK1), CRAF SSDD dimer complex; details: for CRAF^SSDD nH (Hill slope): four-parameter fit, 200 μM ATP
T3 construct: His6 (N); StrepII (N); made in house; host or cells: insect cells (baculovirus)

[4] = target: T4, CRAF^WT (MEK1:CRAF^WT:14-3-3 dimer complex) (Homo sapiens, UniProt P04049); test: TR-FRET kinase inhibition assay (phosphorylation of biotinylated MEK1), CRAF WT dimer complex; details: for CRAF^WT nH (Hill slope): four-parameter fit
T4 construct: His6 (N); made in house; host or cells: insect cells (baculovirus)

[5] = target: T5, BRAF^WT (MEK1^SASA:BRAF^WT:14-3-3 dimer complex) (Homo sapiens, UniProt P15056); test: biochemical
T5 construct: His6 (N); made in house; host or cells: SF9 insect cells (baculovirus)

[6] = system: BRAF^WT (MEK1^SASA:BRAF^WT:14-3-3 dimer complex); test: biochemical; details: IC50 ratio versus BRAF^V600E
[7] = 1 nM enzyme, 250 nM MEK1, 200 μM ATP, 40 min preincubation, 30 min reaction, read-out: BRAF^WT IC50

T5 sequence (P15056 419-766, one chain of several): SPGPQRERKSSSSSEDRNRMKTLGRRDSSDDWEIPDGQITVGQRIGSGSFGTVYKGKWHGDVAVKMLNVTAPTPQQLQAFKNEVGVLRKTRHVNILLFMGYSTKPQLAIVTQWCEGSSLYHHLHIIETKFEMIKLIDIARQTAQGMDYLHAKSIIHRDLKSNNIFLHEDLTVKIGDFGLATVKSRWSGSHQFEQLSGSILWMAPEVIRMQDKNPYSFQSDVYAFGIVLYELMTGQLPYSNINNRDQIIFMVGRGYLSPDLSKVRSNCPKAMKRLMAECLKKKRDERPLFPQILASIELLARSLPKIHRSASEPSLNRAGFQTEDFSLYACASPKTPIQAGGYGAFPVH

Compound | IC50 [1] [nM] | ARAF^SSDD nH (Hill slope) [1] | CRAF^SSDD nH (Hill slope) [3] | CRAF^WT nH (Hill slope) ([4]; 200 μM ATP) | BRAF^WT nH (Hill slope) ([5]; four-parameter fit, 200 μM ATP) | also measured
CCCS(=O)(=O)Nc1ccc(F)c(C(=O)c2c[nH]c3ncc(Cl)cc23)c1F [PLX4720] | 704 ± 264 | −0.5 | – | – | – | –
CCN(C)S(=O)(=O)Nc1ccc(F)c(C(=O)c2c[nH]c3ncc(-c4cnc(C5CC5)nc4)cc23)c1F [PLX7904] | 899 ± 516 | −0.6 | −0.4 | −0.4 | −0.6 | IC50 [2]: 320 ± 82.4 nM; IC50 [5, 7]: > 999 nM; IC50 ([5]; read-out: IC50 of BRAF^WT at 10 μM ATP, 10 μM ATP): 170 ± 121 nM; IC50 ([5]; read-out: IC50 of BRAF^WT at 100 μM ATP, 100 μM ATP): > 1000 nM; IC50 ([5]; read-out: IC50 of BRAF^WT at 1000 μM ATP, 1000 μM ATP): > 10000 nM
O=C(c1c(F)ccc(NS(=O)(=O)N2CC[C@@H](F)C2)c1F)c1c[nH]c2ncc(-c3cnc(C4CC4)nc3)cc12 [PLX8394] | 59.6 ± 54.8 | −0.8 | −0.5 | −0.5 | −0.9 | IC50 [2]: 21.1 ± 1.78 nM; IC50 ([3]; read-out: CRAF^SSDD IC50): 279 ± 202 nM; IC50 ([4]; 4 nM enzyme, 250 nM MEK1, 200 μM ATP, 40 min preincubation, 30 min reaction, read-out: CRAF^WT IC50): > 999 nM; IC50 ([4]; 200 μM ATP, read-out: CRAF^WT dimers IC50): > 1000 nM; fold less active on BRAF^WT dimers than on BRAF^V600E [6]: about 3 fold; IC50 [5, 7]: 54 ± 40.1 nM; effect of increasing ATP concentration on IC50 for BRAF^WT dimers ([5]; 10, 100, 1000 μM ATP): shifted as expected; IC50 ([5]; IC50 of BRAF^WT at 10 μM ATP, 10 μM ATP): 11.1 ± 7.84 nM; IC50 ([5]; IC50 of BRAF^WT at 100 μM ATP, 100 μM ATP): 38.5 ± 34.2 nM; IC50 ([5]; IC50 of BRAF^WT at 1000 μM ATP, 1000 μM ATP): 259 ± 316 nM; fold less active on ARAF^SSDD dimers than on BRAF^V600E ([1]; IC50 ratio versus BRAF^V600E): about 3 fold
Cc1ccc(C(=O)Nc2ccc(CN3CCN(C)CC3)c(C(F)(F)F)c2)cc1C#Cc1cnc2cccnn12 [Ponatinib] | – | −1.2 | −1.6 | −0.9 | −2.0 | –
CN(C)CCOc1ccc(-c2nc(-c3ccncc3)c(-c3ccc4c(c3)CC/C4=N\O)[nH]2)cc1 [SB590885] | 14.6 ± 3.9 | −0.6 | – | – | – | IC50 ([3]; CRAF^SSDD IC50, 1 nM enzyme, 250 nM MEK1, 200 μM ATP, 40 min preincubation, 30 min reaction): 2.5 ± 1.63 nM; IC50 ([4]; CRAF^WT IC50, 4 nM enzyme, 250 nM MEK1, 200 μM ATP, 40 min preincubation, 30 min reaction): 11.6 ± 1.19 nM; BRAF^WT nH (Hill slope) [5]: −1.0
CNC(=O)c1cc(Oc2ccc(NC(=O)Nc3ccc(Cl)c(C(F)(F)F)c3)cc2)ccn1 [Sorafenib] | – | −0.9 | −1.3 | −1.2 | – | –
C[C@@H](NC(=O)c1ncnc(N)c1Cl)c1ncc(C(=O)Nc2cc(C(F)(F)F)c(Cl)cn2)s1 [Tovorafenib] | 225 ± 67.3 | −1.4 | – | – | – | –
CCCS(=O)(=O)Nc1ccc(F)c(C(=O)c2c[nH]c3ncc(-c4ccc(Cl)cc4)cc23)c1F [Vemurafenib] | 47.6 ± 9.12 | −0.9 | −0.8 | −0.7 | −0.6 | –
